In patent US20240261443A1, “COMPOUNDS AND COMPOSITIONS USEFUL AS RADIOTRACERS FOR IMAGING OF REACTIVE OXIDATIVE SPECIES” (Wake Forest University Health Sciences, priority 2019, published 2024):

Legend:
SCC-61 tumors = assay: Post-PET biodistribution, SCC-61 tumor-bearing mice; assay type: in vivo
Description: (§1) Subsequently, post-PET biodistribution was performed in the same SCC-61 or rSCC-61 tumor-bearing mice injected with [^18F]KS1 (FIG. 16). […] High kidney and liver uptake were common with [^18F]radiotracer's distribution at 30 min post-injection.

rSCC-61 tumors = assay: Post-PET biodistribution, rSCC-61 tumor-bearing mice; assay type: in vivo
Description: as §1

PC3 cells = assay: [18F]KS1 in vitro cell uptake in PC3 cells, normoxic and hypoxic; assay type: cell-based, human
Description: ROS efficacy was evaluated in two tumor cell lines: (1)SCC-61 and rSCC-61 cells (HNSCC) (FIG. 5), and (2) PC3 (PCa) cell lines under normoxic and hypoxic conditions (FIG. 6) following previously published protocols by our group (Sai et al., Peptide-based PET imaging of the tumor restricted IL13RA2 biomarker. Oncotarget 2017, 5; Yamamoto et al., Correlation of 18F-FLT and 18F-FDG uptake on PET with Ki-67 immunohistochemistry in non-small cell lung cancer. European Journal of Nuclear Medicine and Molecular Imaging 2007, 34 (10), 1610-1616; Solingapuram Sai et al., Radiolabeling and initial biological evaluation of [18F]KBM-1 for imaging RAR-α receptors in neuroblastoma. Bioorganic & Medicinal Chemistry Letters 2017, 27 (6), 1425-1427). Several ROS blockers including fresh solution of non-radioactive compounds KS1, KS2, SOD (10 μM) in the cell media were added to the seeded tumor cells 1.0 h prior to radiotracer addition (n=6 per blocker). All the cells were then treated with [^18F]KS1 (2.0 μCi/well, UV mass=0.4 μg/mL and S.A=3100 mCi/μmol) and incubated for 60 min (n=6) at 37° C. All the cells (both with and without blockers) were washed and lysed with lysate buffer solution. Lysate samples from each well were collected for gamma counting.
Similarly, in another experiment, human PCa-PC3 cells were cultured under normoxic (˜21% O2) or hypoxic (1% O2) conditions for 48 h. Thereafter, similar to HNSCC cells (detailed above) all assay steps including blocker treatment, radiotracer addition, incubations, washings and lysis were carried out under normoxic or hypoxic conditions. All hypoxia experiments were performed in a hypoxia chamber (Biospherix X3 Xvivo system). Plates without radioactivity were used as controls. […] The counts per minute values of each well were normalized to the amount of radioactivity added to each well and was expressed as percent uptake relative to the control condition. The data were expressed as % ID/mg of protein present in each well.
To further test the specificity of [^18F]KS1 for ROS, radioactive uptake in PCa cells was tested under hypoxic conditions, as several studies have shown that hypoxic conditions promote ROS generation and oxidative stress (Kumar et al., Oxidative Stress Is Inherent in Prostate Cancer Cells and Is Required for Aggressive Phenotype. Cancer Research. 2008; 68:1777-85; Pinthus et al., Androgen Induces Adaptation to Oxidative Stress in Prostate Cancer: Implications for Treatment with Radiation Therapy. Neoplasia (New York, NY). 2007; 9:68-80; Cervellati et al., Hypoxia induces cell damage via oxidative stress in retinal epithelial cells. […] A reported hypoxia model of PCa cells was tested in which the uptake of [^18F]KS1 was evaluated in PC3 cells cultured under hypoxic conditions versus normoxic conditions.

[1] = system: SCC-61 and PC3 cell lines; assay: DCFDA intracellular ROS detection assay; assay type: cell-based, human
From the text: For this, we used dichlorofluorescin diacetate (DCFDA) intracellular ROS detection assay kit and followed manufacture recommended protocol (ZHELEV et al., Docosahexaenoic Acid Sensitizes Leukemia Lymphocytes to Barasertib and Everolimus by ROS-dependent Mechanism Without Affecting the Level of ROS and Viability of Normal Lymphocytes. Anticancer Research 2016, 36 (4), 1673-1682). We studied two patient-derived tumor cell lines: SCC-61, […], and PC3, prostate cancer cell line. The maximum allowed mass for a typical clinical PET radiotracer is <100 μM (Schwarz et al., Radiochemistry and radiopharmacology. LIC-Nuclear Medicine and PET/CT: Technology and Techniques 2016, 11, 77), so we chose 10-100 μM as our concentration range for tracer-level assays. The lowest reported pharmacologic dose for ascorbate is 2.0 mM (Levine et al., Vitamin C: a concentration-function approach yields pharmacology and therapeutic discoveries. Adv Nutr 2011, 2 (2), 78-88), so we chose this dose for our pharmacological assays. We chose the ligand incubation times based on the maximum tracer uptake time (˜2 h) for a typical [^18F]-based PET radiotracer injection (Schlyer, PET tracers and radiochemistry. ANNALS-ACADEMY OF MEDICINE SINGAPORE 2004, 33 (2), 146-154).
Pharmacologic doses of ascorbate generates ROS, including H2O2 and trace amounts of labile iron extracellularly and/or intracellularly (Nauman et al., Systematic Review of Intravenous Ascorbate in Cancer Clinical Trials. Antioxidants (Basel) 2018, 7 (7), 89). We performed the same DCFDA assay with KS1 and ascorbate at pharmacological doses of 2 mM for 7 h in both SCC-61 and PC3 cell lines. ROS production was analyzed and reported (FIG. 11) using the similar measurements as above. Ligand specificity is commonly determined by pretreating the cells with high concentrations of blockers. We used superoxide dismutase (SOD), an enzyme that selectively suppresses accumulation of superoxide peroxide anions (Bielski et al., Chemistry of ascorbic acid radicals. in Ascorbic Acid: Chemistry, Metabolism, and Uses. Chapter 1982, 4, 81-100).

Compound | target (tumor) to non-target (muscle) ratio (SCC-61 tumors; SCC-61 tumors, post-PET) | enrichment in SCC-61 tumors over rSCC-61 tumors (SCC-61 tumors; tumor: muscle ratio) [fold] | target (tumor) to non-target (muscle) ratio (rSCC-61 tumors) | uptake blocked by SOD (PC3 cells; PC3 cells) [%] | uptake blocked by nonradioactive KS1 (PC3 cells; PC3 cells) [%] | uptake increase with doxorubicin (PC3 cells; PC3 cells) [%] | radioactive uptake in PC3 under hypoxic conditions versus normoxic conditions (PC3 cells; hypoxic 1% O2 vs normoxic ~21% O2, 60 min) [fold] | ROS generation (DCFDA fluorescence) ([1]; 10 μM and 100 μM, SCC-61 and PC3) | fluorescence intensity (ROS generation) at pharmacological dose ([1]; 2 mM, 7 h, compared to 100 μM) | increased intensity subdued with SOD addition ([1]; 2 mM, SOD blocker) [fold]
O=C1O/C(=C/CCl)C(O)=C1OCc1ccc(OCC[18F])cc1 [[^18F]KS1] | 10.93 | ~2.5 | 4.11 | ~48 | ~61 | ~15 | ~2 | – | – | –
O=C1O/C(=C/CCl)C(O)=C1OCc1ccc(OCCF)cc1 [KS1, (E)-5-(2-chloroethylidene)-3-(4-(2-fluoroethoxy)benzyloxy)-4-hydroxyfuran-2(5H)-one] | – | – | – | – | – | – | – | did not generate ROS | increased significantly | ~3
